{"source": "patent US9334475B2", "about": "“Method for inducing erythropoietin-producing cell” (Kyoto University, priority 2012, dated 2016)", "key": {"[1]": {"system": "EPO-producing cells induced to differentiate from human iPS cells", "experiment": "EPO production-promoting ability in Step 2 of differentiation of human iPS cells", "assay_type": "cell-based", "conditions": "Step 2, compared with IGF-2 (FIG. 4)", "procedure": "(§1) Human iPS cells (201B6, 201B7, and 253G4) were obtained from Professor Yamanaka of Kyoto University, and cultured in accordance with a conventional method (Takahashi K, et al. Cell. 131: pp. 861 to 872). Using SNL cells (McMahon, A. P. and Bradley, A. (1990) Cell 62; pp. 1073 to 1085) as feeder cells, the iPS cells were cultured to 80 to 90% confluency on a 6 cm dish. The cells were then detached by adding a CTK solution and the feeder cells were removed, and 1 mL of Accutase™ was added to dissociate the iPS cells into single cells.\nSubsequently, the iPS cells were suspended in an RPMI medium containing 10 μM Y-27632, 2% B27, and penicillin/streptomycin and then seeded in a Matrigel-coated 24-well plate at 250,000 cells/well. After adding 100 ng/mL Activin and 1 μM CHIR99021, the volume of medium was adjusted to 0.5 mL/well, and the cells were cultured for six days (Step 1). At this time, on Day 2, 0.5 mM NaB was added to the medium (without medium exchange), and on Day 3, the medium was exchanged for a medium containing 100 ng/mL A ctivin, 1 μM CHIR99021, and 0.5 mM NaB, and on Day 5, the medium was exchanged for a medium containing 100 ng/mL Activin and 1 μM CHIR99021. […]\nIn Step 2, the cells were analyzed after 18 days of culture. […]"}, "[2]": {"system": "EPO-producing cells induced to differentiate from human iPS cells", "experiment": "ELISA of extracellular EPO secretion by EPO-producing cells at various IGF-1 concentrations", "assay_type": "cell-based", "procedure": "as §1\nSubsequently, the iPS cells were suspended in an RPMI medium containing 10 μM Y-27632, 2% B27, and penicillin/streptomycin and then seeded in a Matrigel-coated 24-well plate at 250,000 cells/well. After adding 100 ng/mL Activin and 1 μM CHIR99021, the volume of medium was adjusted to 0.5 mL/well, and the cells were cultured for six days (Step 1). At this time, on Day 2, 0.5 mM NaB was added to the medium (without medium exchange), and on Day 3, the medium was exchanged for a medium containing 100 ng/mL A ctivin, 1 μM CHIR99021, and 0.5 mM NaB, and on Day 5, the medium was exchanged for a medium containing 100 ng/mL Activin and 1 μM CHIR99021.\nAfter six days of culture, the medium was replaced by a DMEM medium containing 1% DMSO, 50 ng/mL IGF-1, 20% KSR, 2 mM L-glutamine, nonessential amino acid (NEAA), 100 μM β-ME (2-mercaptoethanol), 50 mU/L penicillin, and 50 μg/L streptomycin, and the cells were cultured for a certain period of days (Step 2). During cell culture, the medium was exchanged every other day.\nSubsequently, ELISA was performed to study whether the EPO protein expressed was secreted out of the cells. As a result, EPO protein was confirmed outside the cells. […] Further, as a result of studying the amount of IGF-1 added and the number of days of culture, the highest amount of EPO secretion was observed when the cells were cultured for 10 days at 50 ng/mL (FIG. 6). […]"}}, "data": [{"substance": "IGF-1: IGF family gene product used as a growth factor in the Step 2 medium", "values": [{"measurement": "EPO production-promoting ability", "setting": "[1]", "result": "promote EPO production more potently than IGF-2"}, {"measurement": "days of culture in Step 2 giving the highest amount of EPO secretion", "setting": "[2]; IGF-1 at 50 ng/mL (FIG. 6)", "result": 10, "unit": "days"}, {"measurement": "change in EPO secretion over time", "setting": "[2]; IGF-1 at 100 ng/mL, Step 2 (FIG. 6)", "result": "an increasing trend of EPO secretion was confirmed up to Day 12"}, {"measurement": "concentration of IGF-1 added that increased the amount of extracellular secretion of EPO", "setting": "[2]; Step 2, ELISA, Day 8 cells (FIG. 5)", "result": "≥ 1", "unit": "ng/mL"}]}]}
